Measurements published in patent publication US20230357099A1, “PYRAZOLO [3,4-B] PYRIDINE-4-CARBOXAMIDE NITRIFICATION INHIBITOR” (EUROCHEM ANTWERPTEN, priority 2020, published 2023).

Columns and labels:
agricultural soils = test: In soil nitrification inhibition assay; conditions: for inhibition at 50 µM / inhibition at 100 µM: soil; for inhibition at 50 µM: 50 µM of each compound
Description: Top layer (0 to 10 cm) soil samples were collected from different fields in Belgium (Merelbeke, Sint-Laureins and Moorslede). Vegetation was removed and samples were taken from different plots. All soil samples were mixed and sieved (mesh size 2.8 mm) to filter large debris and homogenize soil. The soil was stored at 5° C. in plastic containers covered with Saran foil to prevent changes in microbial community composition and to maintain the original soil water content.
Soil water content was determined by drying 20 g soil for ≥ 48 h in a 60° C. oven and measuring weight before and after drying. Based on the soil water content (± 20%), compound solutions were prepared so that addition of 200 µl compound and 200 µl NH4Cl solution would result in a final compound concentration of 50 µM (unless otherwise stated) and a final NH4+ concentration of 10 mM. Per treatment, 5 small pots were filled with 20 g soil. Next, the soil was treated first with the respective compound solution and then with the NH4Cl solution. Per tray, positive (50 µM DMP) and negative controls (DMSO) were included. […] Demineralized water was added to the soil every 2 to 3 days to a soil weight of 20 g. In the end, each sample of 20 g soil was dissolved in 100 ml 1 M KCI and shaken for 1 hour, followed by filtration through Whatmann® paper. The filtrate was used to measure pH, NH4+ and NO3— concentrations. The nitrification percentage was calculated as the ratio of the consumed ammonium in treated soil versus the consumed ammonium in non-treated soil; the nitrification inhibition percentage was calculated as ‘100% - the nitrification percentage’.

[1] = tested on: agricultural soils (Moorslede and Sint-Laureins); test: Greenhouse gas measurements from fertilized soil
Description: Two agricultural soils coming from fields in Moorslede and Sint-Laureins were used. Screw top vials were filled with 10 g soil. Vials were sealed with Parafilm and preincubated at 21° C. in the dark for 5 days. After pre-incubation, vials were ventilated using a fan. Then 100 µL of a 1 mM compound solution (10 % DMSO) was added, immediately followed by the addition of 100 µL 200 mM NH4Cl. Vials were closed gastight and 5 mL synthetic air was added to the headspace using a plastic syringe, followed by the transfer of 5 mL headspace to an evacuated 3 mL exetainer. Vials were incubated at 21° C. in the dark and background NO concentration was noted. At each sampling timepoint, 5 mL synthetic air was added again to the headspace using a plastic syringe, again followed by the transfer of 5 mL headspace to an evacuated 3 mL exetainer. Vials were ventilated and closed again, and new gas samples were transferred to exetainers like before. N2O in the exetainers were measured via gas chromatography (GC-14 B (Schimadzu) equipped with Haysep Q columns (same spec) and an ECD detector, He at c.a. 20 mL min, 70° C.). The CO2 and CH4 concentration in the 3 mL exetainer vials was measured using a GC (Trace-GC, Interscience) equipped with Haysep Q columns (80-100, ⅛″ divided in 2 part 0.25 and 2.0 m connected with a 6 port valve to allow backflush of water vapor) and a FID (CH4) and TCD (CO2). Carrier gas was He c.a. 20 mL/min kept at 90° C. NO concentration was measured directly by connecting a chemiluminescence NO detector (CLD 77 AM, eco physics) directly to the headspace using a needle.

[2] = tested on: ammonia oxidizing archaea; test: Abundance of ammonia oxidizing archaea in DMP-treated soil
[3] = tested on: Nitrososphaera viennensis; test: Nitrification inhibition assay on Nitrososphaera viennensis (nitrite, Griess); type: cell-based, Nitrososphaera viennensis EN76T; conditions: for activity at 2.5 µM: Nitrososphaera viennensis, 2.5 µM compound, structural variants outside formula (I), read-out: Relative nitrification (%) by Nitrososphaera viennensis treated with 2.5 µM compound
Method in brief: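 N. viennensis EN76T cultures in FWM (pH 7.5, NH4Cl-supplemented), 5× concentrated, treated with compounds at 2.5 µM final (0.25% DMSO) and incubated 24 h at 42 °C. Nitrite measured by Griess absorbance at 540 nm against a standard curve. Relative nitrification normalized between DMSO (no compound) and 100 µM PTIO controls.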

[4] = tested on: ABIL (ammonia-binding liquid inoculum), nitrifying microbial enrichment containing both AOA and AOB; test: Nitrification inhibition assay on ABIL (ammonium consumption); type: cell-based; conditions: for activity at 10 µM: 10 µM compound, structural variants outside formula (I), read-out: Relative nitrification (%) by ABIL treated with 10 µM compound
Aliivibrio fischeri = type: cell-based
Description: Furthermore, a representative subset was tested on Aliivibrio fischeri growth (formerly known as Vibrio fischeri), a bacterium used in the Microtox assay to test toxic substances in different substrates such as (drinking) water, air, soils and sediments.
Two of these variants were also tested on Aliivibrio fischeri to test possible toxicity.

[5] = Soil 2, 7 days, 100 µM of each compound, 6 inhibitors alone and combined with Example 2
[6] = 168 h, Soil 2, 7 days, 100 µM of each compound, 6 inhibitors alone and combined with Example 2

c1nc[nH]n1 [1,2,4-triazole, 1H-1,2,4-triazole]
Nitrification inhibition (%) (agricultural soils; [5]): 32%

S=C1NCCS1 [1,3-thiazolidine-2-thione]
inhibition at 50 µM (agricultural soils; 120 h, Soil 2, 5 days): 59% | inhibition at 100 µM (agricultural soils; [6]): 46%

N#CN=C(N)N [DCD, dicyandiamide]
Nitrification inhibition (%) (agricultural soils; [5]): 0%

Cc1cn[nH]c1C [DMP, 3,4-dimethylpyrazole]
inhibition at 50 µM (agricultural soils; 72 h, Soil 2, 3 days): 68% | inhibition at 50 µM (agricultural soils; 72 h, Soil 3, 3 days): 52% | inhibition at 50 µM (agricultural soils; 168 h, Soil 1, 7 days): 88% | inhibition at 100 µM (agricultural soils; 168 h, Soil 1, 7 days, 100 µM): 84% | inhibition at 50 µM (agricultural soils; 168 h, Soil 2, 7 days): 14% | inhibition at 100 µM (agricultural soils; 168 h, Soil 2, 7 days, 100 µM (Table 2)): 14% | inhibition at 100 µM (agricultural soils; [6]): 54% | inhibition at 50 µM (agricultural soils; 168 h, Soil 3, 7 days): 0% | inhibition at 100 µM (agricultural soils; 168 h, Soil 3, 7 days, 100 µM): 0% | Cumulative emission at indicated timepoint [ppb], N2O, 4 h ([1]; Moorslede soil, N2O): 0 ppb | Cumulative emission at indicated timepoint [ppb], N2O, 24 h ([1]; Moorslede soil, N2O): 0 ppb | Cumulative emission at indicated timepoint [ppb], N2O, 48 h ([1]; Moorslede soil, N2O): 0 ppb | Cumulative emission at indicated timepoint [ppb], N2O, 72 h ([1]; Moorslede soil, N2O): 0 ppb | Cumulative emission at indicated timepoint [ppb], N2O, 99 h ([1]; Moorslede soil, N2O): 0 ppb | Cumulative emission at indicated timepoint [ppb], NO, 4 h ([1]; Moorslede soil, NO): 48 ppb | Cumulative emission at indicated timepoint [ppb], NO, 24 h ([1]; Moorslede soil, NO): 49 ppb | Cumulative emission at indicated timepoint [ppb], NO, 48 h ([1]; Moorslede soil, NO): 47 ppb | Cumulative emission at indicated timepoint [ppb], NO, 72 h ([1]; Moorslede soil, NO): 64 ppb | Cumulative emission at indicated timepoint [ppb], NO, 99 h ([1]; Moorslede soil, NO): 64 ppb | Cumulative emission at indicated timepoint [ppb], N2O, 4 h ([1]; Sint-Laureins soil, N2O): 0 ppb | Cumulative emission at indicated timepoint [ppb], N2O, 24 h ([1]; Sint-Laureins soil, N2O): 0 ppb | Cumulative emission at indicated timepoint [ppb], N2O, 48 h ([1]; Sint-Laureins soil, N2O): 0 ppb | Cumulative emission at indicated timepoint [ppb], N2O, 72 h ([1]; Sint-Laureins soil, N2O): 0 ppb | Cumulative emission at indicated timepoint [ppb], N2O, 99 h ([1]; Sint-Laureins soil, N2O): 0 ppb | Cumulative emission at 215 h [ppb], N2O ([1]; Sint-Laureins soil, N2O, 215 h): 47 ppb | Cumulative emission at indicated timepoint [ppb], NO, 4 h ([1]; Sint-Laureins soil, NO): 26 ppb | Cumulative emission at indicated timepoint [ppb], NO, 24 h ([1]; Sint-Laureins soil, NO): 59 ppb | Cumulative emission at indicated timepoint [ppb], NO, 48 h ([1]; Sint-Laureins soil, NO): 98 ppb | Cumulative emission at indicated timepoint [ppb], NO, 72 h ([1]; Sint-Laureins soil, NO): 162 ppb | Cumulative emission at indicated timepoint [ppb], NO, 99 h ([1]; Sint-Laureins soil, NO): 187 ppb | Cumulative emission at 215 h [ppb], NO ([1]; Sint-Laureins soil, NO, 215 h): 243 ppb | effect on the presence (abundance) of ammonia oxidizing archaea [2]: no inhibiting effect on the presence of archaea

Cc1cn(C(CC(=O)O)C(=O)O)nc1C (stereo not drawn) [DMPSA, 2-(3,4-dimethyl-pyrazol-1-yl)-succinic acid]
inhibition at 50 µM (agricultural soils; 72 h, Soil 2, 3 days): 47% | inhibition at 100 µM (agricultural soils; [6]): 44%

Cc1ccccc1OCCN(C)C(=O)c1n[nH]c2ccccc12 [Example 148]
activity at 2.5 µM [3]: 100% | activity at 10 µM [4]: 100%

O=S(=O)(Nc1cccc2cn[nH]c12)N1CCCCC1 [Example 149]
activity at 2.5 µM [3]: 100% | activity at 10 µM [4]: 100%

CCN(CCC#N)Cn1nc(Cl)c2ccccc21 [Example 150]
activity at 2.5 µM [3]: 100% | activity at 10 µM [4]: 100%

CCCc1nnc(NCc2cccc3cn[nH]c23)o1 [Example 151]
activity at 2.5 µM [3]: 94% | activity at 10 µM [4]: 100%

COC(=O)C1(CNCc2cccc3cn[nH]c23)CCOCC1 [Example 152]
activity at 2.5 µM [3]: 98% | activity at 10 µM [4]: 100%

O=S(=O)(Cc1ccccc1F)Nc1ccc2[nH]ncc2c1 [Example 153]
activity at 2.5 µM [3]: 100% | activity at 10 µM [4]: 100%

COc1ccc(C(O)CNCc2cccc3cn[nH]c23)cc1 (stereo not drawn) [Example 154]
activity at 2.5 µM [3]: 99% | activity at 10 µM [4]: 100%

CCCC(O)CNCc1cccc2cn[nH]c12 (stereo not drawn) [Example 155]
activity at 2.5 µM [3]: 100% | activity at 10 µM [4]: 100%

CC1CCCCN1C(=O)c1n[nH]c2ccccc12 (stereo not drawn) [Example 156]
activity at 2.5 µM [3]: 100% | activity at 10 µM [4]: 100%

CC1(C)CN(C(=O)c2n[nH]c3ccccc23)CC[S+]1[O-] (stereo not drawn) [Example 157]
activity at 2.5 µM [3]: 94% | activity at 10 µM [4]: 100%

FC(F)(F)c1c[nH]c(C2CCN(Cc3cccc4cn[nH]c34)CC2)n1 [Example 158]
activity at 2.5 µM [3]: 100% | activity at 10 µM [4]: 100%

CN(C(=O)Nc1ccc2c(cnn2C(F)F)c1)C1CCSC1 (stereo not drawn) [Example 159]
activity at 2.5 µM [3]: 91% | activity at 10 µM [4]: 100%

COc1ccc(N2CC(C(=O)Nc3ccc4[nH]ncc4c3)CC2=O)cc1 (stereo not drawn) [Example 160]
activity at 2.5 µM [3]: 100% | activity at 10 µM [4]: 100%

O=S(=O)(Nc1ccc2cn[nH]c2c1)c1cccc2ccccc12 [Example 161]
activity at 2.5 µM [3]: 100% | activity at 10 µM [4]: 100%

O=C(Nc1ccc2[nH]ncc2c1)C1(c2ccc(F)cc2)CC1 [Example 162]
activity at 2.5 µM [3]: 100% | activity at 10 µM [4]: 100%

CCOc1ccc(CN(CC)C(=O)c2n[nH]c3ccccc23)cc1OC [Example 163]
activity at 2.5 µM [3]: 99% | activity at 10 µM [4]: 100%

COCCN1CCN(Cc2cccc3cn[nH]c23)CC1=O [Example 164]
activity at 2.5 µM [3]: 100% | activity at 10 µM [4]: 100%

O=C(NC1CC1)c1cccc(NC(=O)c2n[nH]c3ccccc23)c1 [Example 165]
activity at 2.5 µM [3]: 100% | activity at 10 µM [4]: 100%

CC1(C)N([O])C(c2ccccc2)=[N+]([O-])C1(C)C [PTIO, 2-phenyl-4,4,5,5-tetramethylimidazoline-1-oxyl 3-oxide]
inhibition in the N. viennensis assay ([3]; PTIO at 25 µM): does not show inhibition anymore | inhibition in the ABIL assay ([4]; PTIO at 33 µM): does not show inhibition anymore

CC(C)n1ncc2cc(CNc3ccc4[nH]ncc4c3)cnc21 [drawing 170]
Growth of Aliivibrio fischeri, relative to control without compound (%) (Aliivibrio fischeri): 40%

N#Cc1nn(CN2CCSCC2)c2ccc(Cl)cc12 [drawing 171]
Growth of Aliivibrio fischeri, relative to control without compound (%) (Aliivibrio fischeri): 3%
